Test results from ChEMBL document CHEMBL1201862, “PubChem BioAssay data set” (2004).
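In this assay, cells in 96-well plates receive the compound at five concentrations for 48 hours. Endpoints are linearly interpolated between the surrounding concentrations. GI50 is the concentration that inhibits growth by half.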 Activity calls are given as the source filed them. Rule as the data show it: active = GI50 up to about 1.1 µM and inactive = higher.

Legend:
Assay in all cases: DTP human tumour cell line panel, 48 h
A498 = test system: A498
CCRF-CEM = test system: CCRF-CEM
COLO 205 = test system: COLO 205
DU-145 = test system: DU-145
EKVX = test system: EKVX
HCT-15 = test system: HCT-15
HOP-92 = test system: HOP-92
HT-29 = test system: HT-29
Hs-578T = test system: Hs-578T
MCF7 = test system: MCF7
PC-3 = test system: PC-3
SF-268 = test system: SF-268
SK-MEL-28 = test system: SK-MEL-28
SK-MEL-5 = test system: SK-MEL-5
SW-620 = test system: SW-620
UACC-257 = test system: UACC-257
A549 = test system: A549
M14 = test system: M14
SF-539 = test system: SF-539
T47D = test system: T47D

| SMILES | GI50 (A498) | GI50 (CCRF-CEM) | GI50 (COLO 205) | GI50 (DU-145) | GI50 (EKVX) | GI50 (HCT-15) [µM] | GI50 (HOP-92) | GI50 (HT-29) | GI50 (Hs-578T) | GI50 (MCF7) | GI50 (PC-3) | GI50 (SF-268) | GI50 (SK-MEL-28) | GI50 (SK-MEL-5) | GI50 (SW-620) | GI50 (UACC-257) | GI50 (A549) | GI50 (M14) | GI50 (SF-539) | GI50 (T47D) |
| --- | --- | --- | --- | --- | --- | --- | --- | --- | --- | --- | --- | --- | --- | --- | --- | --- | --- | --- | --- | --- |
| O=C1NC(=S)N/C1=C\c1ccc(Br)s1 | 34.3 µM (inactive) | 25.3 µM (inactive) | > 100 µM (inactive) | > 100 µM (inactive) | 10.3 µM (inactive) | 91.2 | 82 µM (inactive) | 85.1 µM (inactive) | 34 µM (inactive) | > 100 µM (inactive) | 94.2 µM (inactive) | > 100 µM (inactive) | > 100 µM (inactive) | 39.8 µM (inactive) | > 100 µM (inactive) | 61 µM (inactive) | – | – | – | – |
| S=C(NCc1ccccc1)c1nc[nH]c1C(=S)NCc1ccccc1 | – | 2.96 µM (inactive) | 3.48 µM (inactive) | 9.27 µM (inactive) | 4.34 µM (inactive) | 3.83 | 1.88 µM (inactive) | 6.84 µM (inactive) | – | 2.55 µM (inactive) | 7.82 µM (inactive) | 6.19 µM (inactive) | 12.4 µM (inactive) | – | 4.98 µM (inactive) | 10.1 µM (inactive) | 3.89 µM (inactive) | 5.55 µM (inactive) | 10.4 µM (inactive) | 4.35 µM (inactive) |
| N/C(=N\OC(=O)NC(Cl)=C(Cl)Cl)c1cc(C(F)(F)F)cc(C(F)(F)F)c1 | 17.5 µM (inactive) | 4.65 µM (inactive) | 15.7 µM (inactive) | 13.2 µM (inactive) | 13.7 µM (inactive) | 17.3 | 14.8 µM (inactive) | 16.9 µM (inactive) | – | 25.1 µM (inactive) | 17.5 µM (inactive) | 18.7 µM (inactive) | 17.4 µM (inactive) | 26.8 µM (inactive) | 18.9 µM (inactive) | 16.1 µM (inactive) | 15.3 µM (inactive) | 25.2 µM (inactive) | 16 µM (inactive) | 6.21 µM (inactive) |
| C=CC(=O)Nc1ccc(NC(=O)C=C)c2c1C(=O)c1ccccc1C2=O | > 100 µM (inactive) | – | > 100 µM (inactive) | – | > 100 µM (inactive) | 41.9 | – | 45.5 µM (inactive) | > 100 µM (inactive) | 21 µM (inactive) | 40.8 µM (inactive) | – | 33.5 µM (inactive) | 60.1 µM (inactive) | 26.4 µM (inactive) | > 100 µM (inactive) | > 100 µM (inactive) | 29.6 µM (inactive) | 24.8 µM (inactive) | > 100 µM (inactive) |
| O=C(Nc1ccc(C(F)(F)F)cc1[N+](=O)[O-])c1cccnc1 | 18.3 µM (inactive) | 4.85 µM (inactive) | 4.84 µM (inactive) | 7.08 µM (inactive) | 4.61 µM (inactive) | 2.91 | – | 2.04 µM (inactive) | 6.53 µM (inactive) | 2.22 µM (inactive) | – | 4.07 µM (inactive) | 0.386 µM (active) | 4.06 µM (inactive) | 3.14 µM (inactive) | 5.71 µM (inactive) | 6.75 µM (inactive) | 5.09 µM (inactive) | 3.37 µM (inactive) | > 100 µM (inactive) |
| C[C@]12CC[C@H](O)CC1=CC[C@@H]1C2CC[C@]2(C)Nc3c(cnn3-c3ccc(F)cc3)CC12 (some centres not stated) | 2.17 µM (inactive) | 2.94 µM (inactive) | – | 32 µM (inactive) | 79.6 µM (inactive) | > 100 | 21.4 µM (inactive) | 5.94 µM (inactive) | – | > 52.2 µM (inactive) | 14.1 µM (inactive) | 26.1 µM (inactive) | 3.49 µM (inactive) | 25.2 µM (inactive) | – | 60.8 µM (inactive) | 52.1 µM (inactive) | > 100 µM (inactive) | 1.46 µM (inactive) | > 42.7 µM (inactive) |
| CC1(C)[C@H]2CC[C@]1(C)[C@H](OC(=O)NNC(=O)O[C@@H]1C[C@@H]3CC[C@@]1(C)C3(C)C)C2 | 16.3 µM (inactive) | 20.3 µM (inactive) | 12.3 µM (inactive) | 16.3 µM (inactive) | 12.6 µM (inactive) | 12.5 | 15.1 µM (inactive) | 5.7 µM (inactive) | 14.2 µM (inactive) | 10.9 µM (inactive) | – | 15.6 µM (inactive) | 24.3 µM (inactive) | 12.6 µM (inactive) | 19.4 µM (inactive) | 16.3 µM (inactive) | 10.4 µM (inactive) | 15.5 µM (inactive) | 14.4 µM (inactive) | 7.1 µM (inactive) |
| COc1cc2c(cc1OC)[C@H]1C(COC(=O)c3ccccc3)CS/C(=N/c3ccccc3)N1CC2 (some centres not stated) | 48.9 µM (inactive) | > 100 µM (inactive) | > 100 µM (inactive) | – | > 100 µM (inactive) | > 100 | 8.17 µM (inactive) | 8.24 µM (inactive) | – | – | – | 8.69 µM (inactive) | > 100 µM (inactive) | > 100 µM (inactive) | > 100 µM (inactive) | > 100 µM (inactive) | 82.6 µM (inactive) | > 100 µM (inactive) | > 100 µM (inactive) | – |
